Source: ChEMBL document CHEMBL5376008, “Total Synthesis, Revised Structure, and Biological Evaluation of Elgonene B and Analogues” (J Nat Prod, 2024)
The source made the active and inactive calls. No cut-off for these calls is given here.

Legend:
Escherichia coli = experiment: Antibacterial activity against Escherichia coli DH5a incubated for 18 hrs by spectrophotometric based microdilution assay; assay type: functional, organism-based
HeLa = experiment: Cytotoxicity against human HeLa cells incubated for 24 hrs by MTT assay; assay type: toxicity, cell-based
KB 3-1 = experiment: Cytotoxicity against human KB-3-1cells incubated for 24 hrs by MTT assay; assay type: toxicity, cell-based; conditions: kb 3-1, 24 h

Row | Compound | Activity (Escherichia coli) | Activity (HeLa) | Activity (KB 3-1)
1 | C=C([C@H]1CC=C(C)CC1)[C@@H](O)[C@H]1C[C@@H](C)C(=O)O1 | inactive | Non-Toxic | Non-Toxic
2 | C=C([C@@H]1CC=C(C)CC1)[C@H](O)[C@H]1C[C@@H](C)C(=O)O1 | inactive | Non-Toxic | Non-Toxic
3 | C=C([C@@H]1CC=C(C)CC1)[C@@H](O)[C@H]1C[C@@H](C)C(=O)O1 |  | Non-Toxic | Non-Toxic
4 | C=C([C@H]1CC=C(C)CC1)[C@H](O)[C@H]1C[C@@H](C)C(=O)O1 |  | Non-Toxic | Non-Toxic
